Laboratory results from PMC12502323, “Discovery of small molecules with anthelmintic potential in the Medicines for Malaria Venture’s COVID and Global Health Priority Boxes using an infrared-based assay for Caenorhabditis elegans motility” (BMC Research Notes, 2025).
Read-outs that look alike come from different tables or passages of the source.

What was measured:
Caenorhabditis elegans [1] = experiment: Primary screen, infrared-based (WMicroTracker ONE) C. elegans L4 motility assay at 40 µM; type: cell-based, Caenorhabditis elegans (Bristol N2); conditions: primary screen at 40 µM; for C. elegans NOTES (HIT): hit if motility < 25%
Description: (§1) Methods to cultivate C. elegans (Bristol N2) and synchronize growth to the L4 stage were as described. WMicroTracker ONE (Phylumtech, Argentina) detects movement by measuring the scattering of infrared light beams that are projected into each well of a microtiter plate (two 880 nm beams/well in a 96w plate).
(§2) Synchronized C. elegans L4 were detached from agar and collected in M9 buffer. Worms were centrifuged for 1 min at 1,900 g and washed in S medium to decrease the concentration of E. coli OP50 that might interfere with infrared detection. Control and assay compounds (1 µL) in DMSO (Fisher Scientific, Cat# BP231-100) were spotted into each well of a clear, flat-bottomed 96-well polystyrene plate (Fisherbrand, Cat# FB012931). DMSO (1%) was used as the negative control. Approximately 70 L4 in 100 µL S medium were added per well. First pass screens employed 40 µM compound, and motility was measured every 20 min for 24 h in the WMicroTracker ONE reader in which the temperature was 25 ± 1 °C. Motility was normalized relative to the DMSO controls. Hits were defined as compounds that decreased motility to ≤ 25% of that in DMSO control worms.

[2] = HEK293 cytotoxicity assay (resazurin); type: cell-based, Human; conditions: human
Description: Potent compounds were also evaluated for cytotoxicity against HEK293 cells. Cells were cultured at 37 °C and 5% in Dulbecco’s Modified Eagle Medium (DMEM; Gibco, Cat#: 11965-092) containing 10% heat-inactivated fetal bovine serum (FBS; Omega Scientific Inc., Cat#: FB02) and 1% penicillin-streptomycin (ThermoFisher Scientific, Cat#: 15140122), and then sub-cultured when 60–80% confluent. Cells were detached with 0.05% trypsin/EDTA (ThermoFisher Scientific, Cat#: 25300054) and centrifuged for 5 min at 1,900 g.
Screens were performed over 11 compound concentrations (0.00007–40 µM) that had been prepared in DMSO. Aliquots (1 µL) were spotted into each well of a clear-bottomed, 96-well, polystyrene assay plate (Fisher Scientific, Cat#: FB012931). Approximately 20,000 HEK293 cells in 99 µL of the above supplemented DMEM were then added to each well. After 46 h at 37 °C and 5% CO2, 20 µL 0.5 mM resazurin (ThermoFisher Scientific, Cat#: B21187.03) were added and the incubation continued for 2 h at 37 °C [27]. Fluorescence was measured in a 2104 EnVision Multilabel Plate Reader (PerkinElmer) at 560 and 590 nm excitation and emission wavelengths, respectively. Raw data were exported from the EnVision Workstation software (version 1.13.3009.1401; PerkinElmer) into Prism GraphPad, and the half-maximal cytotoxic concentration (CC50) values were calculated using a non-linear regression curve.

Caenorhabditis elegans [3] = experiment: Concentration response C. elegans L4 motility assay (WMicroTracker ONE), EC50; type: cell-based, Caenorhabditis elegans (Bristol N2); conditions: Caenorhabditis elegans, read-out: EC50 (motility)
Description: as §1, §2
For potent compounds, concentration response assays (nine concentrations: 0.005 µM to 40 or 100 µM) were conducted to measure the half-maximal effective concentration (EC50). Compounds were serially diluted in DMSO using 96-well, v-bottomed polypropylene dilution plates (ThermoFisher Scientific, Cat#: 249944) and 1 µL aliquots spotted into each well of the assay plates. Motility was measured as described above. Prism GraphPad, Version 8.0 (GraphPad Software, San Diego, CA) was used to calculate EC50 values using a non-linear sigmoidal four parameter logistic curve.

[4] = C. elegans L4, WMicroTracker ONE

Structure (SMILES) | C. elegans Mean motility vs. DMSO control (%) (Caenorhabditis elegans [1]; C. elegans L4) | C. elegans Mean motility vs. DMSO control (%) (Caenorhabditis elegans [1]; [4]) | further results
CO[C@H]1C[C@H](O[C@@H]2/C(C)=C/C[C@@H]3C[C@@H](C[C@]4(CC[C@H](C)[C@@H](C5CCCCC5)O4)O3)OC(=O)[C@@H]3C=C(C)/C(=N/O)[C@H]4OC/C(=C\C=C\[C@@H]2C)[C@]43O)O[C@@H](C)[C@@H]1O [selamectin, reference compound] | 2.31 |  | C. elegans NOTES (HIT) (Caenorhabditis elegans [1]): HIT; CC50 at 48 h ([2]; HEK293 cell viability after 48 h, read-out: CC50): 9.88 ± 4.26 µM; EC50 (Caenorhabditis elegans [3]; C. elegans L4, after 3 h): 0.722 ± 0.555 µM
OC(Cn1cncn1)(Cn1cncn1)c1ccc(F)cc1F [MMV002337] |  | 103.8 | 
Cc1ccc(NC(=O)c2ccc(CN3CCN(C)CC3)cc2)cc1Nc1nccc(-c2cccnc2)n1 [MMV009948] |  | 98.37 | 
CO/N=C1\C[C@]2(C[C@@H]3C[C@@H](C/C=C(\C)C[C@@H](C)/C=C/C=C4\CO[C@@H]5[C@H](O)C(C)=C[C@@H](C(=O)O3)[C@]45O)O2)O[C@H](/C(C)=C/C(C)C)[C@H]1C [moxidectin, reference compound] | 0.28 |  | C. elegans NOTES (HIT) (Caenorhabditis elegans [1]): HIT; CC50 at 48 h [2]: 13.3 ± 9.47 µM; EC50 (Caenorhabditis elegans [3]; 1 h): 0.128 ± 0.045 µM
C[C@@H](c1nc(-c2ccc(C#N)cc2)cs1)[C@](O)(Cn1cncn1)c1ccc(F)cc1F [MMV1634362] | 84.55 |  | 
CC(C)(C)NC(=O)[C@@H]1CN(Cc2cccnc2)CCN1C[C@@H](O)C[C@@H](Cc1ccccc1)C(=O)N[C@H]1c2ccccc2C[C@H]1O [MMV659198] |  | 103.91 | 
CCn1cnc2c(N3CCC[C@H](c4ccncc4)C3)ncnc21 [MMV1752548] | 78.79 |  | 
CC(C)(C)NC(=O)N[C@H](C(=O)N1C[C@H]2[C@@H]([C@H]1C(=O)NC(CC1CCC1)C(=O)C(N)=O)C2(C)C)C(C)(C)C (some centres unmarked) [MMV1580497] | 86.33 |  | 
CNCc1[cH-]ccc1CNc1ccnc2cc(Cl)ccc12.[Fe+2].c1cc[cH-]c1 [MMV892669] |  | 102.88 | 
NS(=O)(=O)c1cc2c(cc1Cl)N=CNS2(=O)=O [MMV001901] |  | 96.35 | 
CO[C@@H](C(=O)N1Cc2[nH]nc(NC(=O)c3ccc(N4CCN(C)CC4)cc3)c2C1)c1ccccc1 [MMV676600] |  | 100.25 | 
CCCCc1oc2ccccc2c1C(=O)c1cc(I)c(OCCN(CC)CC)c(I)c1 [MMV001992] | 67.16 |  | 
Cn1cc(CN2CCc3c(c(C(=O)NCc4nccs4)nn3Cc3ccccc3)C2)c2ccccc21 [MMV1167451] | 84.51 |  | 
O=C(Nc1cnc2ccccc2c1)c1ccccc1C(=O)c1ccc(F)cc1 [MMV1760745] | 93.6 |  | 
Cn1ccnc1SCC(=O)Nc1ccc(C(=O)Nc2ncccc2O)cc1 [MMV1267536] | 64.36 |  | 
CC[C@@H]([C@H](C)O)n1ncn(-c2ccc(N3CCN(c4ccc(OC[C@@H]5CO[C@@](Cn6cncn6)(c6ccc(F)cc6F)C5)cc4)CC3)cc2)c1=O [MMV688774] | 86.8 |  | 
Cc1ncc([N+](=O)[O-])n1CC(C)O (centres unmarked) [MMV002287] | 78.09 |  | 
c1ccc(-c2ccnc(C3CCN(CC45CNCC4C5)CC3)n2)cc1 (centres unmarked) [MMV1797658] | 81.14 |  | 
O[C@@H](c1cc(C(F)(F)F)nc2c(C(F)(F)F)cccc12)[C@H]1CCCCN1 [MMV000016] |  | 108.37 | 
CC(=O)Oc1ccccc1C(=O)Nc1ncc([N+](=O)[O-])s1 [MMV688991] |  | 112.67 | 
O=C(NC1CCCc2c1[nH]c1ccc(Cl)cc21)c1ccccn1 (centres unmarked) [MMV690621] | 85.65 |  | 
CO[C@H]1C[C@H](O[C@H]2[C@H](C)O[C@@H](O[C@@H]3/C(C)=C/C[C@@H]4C[C@@H](C[C@]5(C=C[C@H](C)[C@@H](C6CCCCC6)O5)O4)OC(=O)[C@@H]4C=C(C)[C@@H](O)[C@H]5OC/C(=C\C=C\[C@@H]3C)[C@]54O)C[C@@H]2OC)O[C@@H](C)[C@@H]1O [doramectin, reference compound] | 6.74 |  | C. elegans NOTES (HIT) (Caenorhabditis elegans [1]): HIT
